Assay: Stability of compound 4 towards pH variations by 1H-NMR
Assay type: physicochemical
Conditions: D2O, room temperature, spectra at 10 min, 4.5 h and 24 h
Description: Stability of compound 4 towards pH variations is evaluated through ^1H-NMR analysis. Two samples are prepared, one in acidic conditions and one in basic conditions; the first is prepared by dissolving 2.3 mg in 550 μl of D2O and adjusting to pH 1.2 through DCl addition, while the second is prepared by dissolving 3 mg of compound 4 in 550 μl of D2O and adjusting to pH 12.5 through NaOD addition. The two samples are kept at room temperature and ^1H-NMR spectra thereof are recorded at time 10 min, 4.5 h and 24 h.
FIG. 1. ^1H-NMR spectra of compound 4 at pH 12.5 and at pH 1.2.

CN(C)c1cccc2c(S(=O)(=O)NCC[C@H]3O[C@H](CO)[C@@H](O)[C@H](O)[C@H]3O)cccc12 [Compound 4, 5-(Dimethylamino)-N-[2′-(α-D-glucopyranosyl)ethyl]-1-naphthalenesulphonamide]
Stability towards pH (degradation by 1H-NMR) (pH 1.2 (DCl)): no degradation
Stability towards pH (degradation by 1H-NMR) (pH 12.5 (NaOD)): no degradation

— patent US20110112184A1, “COMPOUNDS WITH GLYCIDIC STRUCTURE ACTIVE IN THE THERAPY OF SYSTEMIC AND LOCAL INFLAMMATION” (priority 2008, published 2011)
